Results taken from patent US10653676B2 (Dana-Farber Cancer Institute, Inc., priority 2010, dated 2020).

How the values were obtained:
USP12/UAF1/WDR20 complex = biological target: T1, USP12/UAF1/WDR20 complex (Homo sapiens, UniProt O75317); assay: ubiquitin-AMC assay with USP12/UAF1/WDR20; assay type: biochemical
T1 construct: made in house; host or cells: Sf9
Procedure: FIG. 6 is a composite figure showing that C527 is a pan-deubiqutinating enzyme inhibitor […]. Ubiquitin-AMC assay was performed using purified (FIG. 6A) USP12/UAF1/WDR20 (FIG. 6B) USP5 and (FIG. 6C) UCH-L1. Enzymes were incubated with DMSO or C527 at indicated concentrations for 3 h, followed by the addition of Ub-AMC at 0.5 μM final concentration. The fluorescence at […] was measured to indicate the enzymatic activity. FIG. 6D is a summary showing the IC50 of C527 against the indicated enzymes.
The in vitro enzymatic assays were performed using purified proteins from Sf9 cells as described previously (Cohn et al.). The assays using ubiquitin-AMC (Ub-7-amido-4-methylcoumarin; Boston Biochem) as substrate was carried out in a reaction buffer containing 20 mM HEPES-KOH (pH 7.8), 20 mM NaCl, 0.1 mg/ml ovalbumin, 0.5 mM EDTA and 10 mM dithiothreitol. The fluorescence was measured by FluoStar Galaxy Fluorometer (BMG Labtech). For the Ub-vinylsulfone (VS) assay, the proteins were incubated with Ub-VS at 0.5 μM final concentration for 1 h at 30° C., followed by the immunoblotting analysis.
To examine the specificity of C527 in USP1/UAF1 inhibition, its ability to inhibit other DUB enzymes in vitro was examined. […] Moreover, the active complex of USP12 contains an additional WD40 subunit (WDR20). […]

native USP1 = biological target: T2, native USP1 (Homo sapiens, UniProt O94782); assay: HA-Ub-VS labelling of native USP1 in HeLa cell extracts; assay type: biochemical; settings: HeLa cell extracts pretreated 4 h, then Ub-VS 40 min at 30° C.; FIG. 7
T2 construct: endogenous in cells; host or cells: HeLa cell extract
Procedure: FIG. 7 is a composite figure depicting preferential inhibition of the activity of native USP1/UAF1 by C527. HeLa cell extracts were incubated with ubiquitin-aldehyde (Ub-Ald, 5 μM) or C527 at indicated concentrations for 4 h, followed by the addition of 0.5 μM Ub-Vs for 40 min. The reaction was split into two aliquots and subjected to immunoblotting for HA or USP1, respectively.
The ability of C527 to inhibit the deubiquitinating activity of native USP1 complexes derived from human cells was determined next (FIG. 7). For this purpose, the HA-tagged ubiquitin-VS, an affinity reagent known to covalently modify and trap active DUB enzymes in cell extracts was used. Cell extracts prepared from HeLa cells were pretreated with increasing concentrations of C527 for 4 h, followed by the incubation with Ub-VS for 40 min at 30° C. The enzymatic activity of endogenous DUBs was indicated by the conjugation of Ub-VS, detected as HA-labeling (see FIG. 7, high molecular weight bands). […] Ub-VS conjugation was inhibited by ubiquitin-aldehyde (Ub-Ald), a non-specific inhibitor of DUBs (lane 3).

[1] = test system: HeLa cells, integrated with the NHEJ reporter; assay: NHEJ reporter assay; assay type: cell-based, human; settings: same condition as HR assay; FIG. 8B
Procedure: FIG. 8 is a composite figure showing that C527 inhibits homologous recombination repair. […] U2OS-DRGFP cells were transfected with I-SCE-I and then exposed to C527 at the indicated concentration for 24 h. Cells were then subjected to flow cytometry analysis. The percentage of GFP positive cells was normalized by solvent vehicle treated group. […] HeLa cells, integrated with the NHEJ reporter, were treated with C527 and analyzed as described in (FIG. 8A). […] HeLa cells were pre-treated with DMSO or C527 at the indicated concentration and then exposed to camptothecin (CPT) for 1 hr. RAD51 foci were detected using immunofluorescence.
Disruption of FANCD2 monoubiquitination or of USP1 activity (Oestergaard V H, Langevin F, Kuiken H J, et al. Deubiquitination of FANCD2 is required for DNA crosslink repair. Mol Cell. 2007; 28:798-809; Kim J M, Parmar K, Huang M, et al. Inactivation of murine Usp1 results in genomic instability and a Fanconi anemia phenotype. Dev Cell. 2009; 16:314-320) results in decreased HR. A gene conversion assay was used to examine the effect of C527 on cellular HR activity (FIG. 8A).

HeLa cells = assay: clonogenic assay; assay type: cell-based, human; settings: FIG. 9B
Procedure: FIG. 9 is a composite figure showing that C527 causes DNA damage and inhibits the proliferation of tumor cells. […] HeLa cells were treated with C527 at the indicated concentrations for 24 hrs, and cells were subjected to immunoblotting. Mitomycin C (MMC, 1 μM) was used as a positive control. […] HeLa cells were seeded in a 6-well plate and treated with C527 at the indicated concentrations. Cell proliferation was evaluated using a clonogenic assay.
Cells were seeded in 6-well plate at 500 cells per well followed by treatment with C527. Colonies were allowed to grow for 7-10 days, fixed with a solution containing 10% Methanol and 10% acetic acid at room temperature for 15 min and then stained with 1% crystal violet in methanol. Colonies of >50 cells were counted, and the surviving fraction was calculated and normalized to untreated control.
Impaired HR integrity may lead to genotoxic effect. Genotoxic agents are known to directly activate DNA damage response pathways, resulting in FANCD2 monoubiquitination and CHK1 phosphorylation (FIG. 9A).

T1 sequence (O75317 whole entry, species assumed): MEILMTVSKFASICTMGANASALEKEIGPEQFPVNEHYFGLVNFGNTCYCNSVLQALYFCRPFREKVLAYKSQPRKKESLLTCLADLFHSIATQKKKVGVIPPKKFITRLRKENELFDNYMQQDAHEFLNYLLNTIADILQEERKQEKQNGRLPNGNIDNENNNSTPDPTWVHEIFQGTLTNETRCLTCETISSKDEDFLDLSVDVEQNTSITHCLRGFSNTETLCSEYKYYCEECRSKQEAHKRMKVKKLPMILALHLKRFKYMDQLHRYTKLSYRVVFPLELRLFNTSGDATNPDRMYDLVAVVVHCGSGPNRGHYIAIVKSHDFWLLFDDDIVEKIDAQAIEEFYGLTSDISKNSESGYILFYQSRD
T1 sequence (Q8TAF3 whole entry partner, species assumed): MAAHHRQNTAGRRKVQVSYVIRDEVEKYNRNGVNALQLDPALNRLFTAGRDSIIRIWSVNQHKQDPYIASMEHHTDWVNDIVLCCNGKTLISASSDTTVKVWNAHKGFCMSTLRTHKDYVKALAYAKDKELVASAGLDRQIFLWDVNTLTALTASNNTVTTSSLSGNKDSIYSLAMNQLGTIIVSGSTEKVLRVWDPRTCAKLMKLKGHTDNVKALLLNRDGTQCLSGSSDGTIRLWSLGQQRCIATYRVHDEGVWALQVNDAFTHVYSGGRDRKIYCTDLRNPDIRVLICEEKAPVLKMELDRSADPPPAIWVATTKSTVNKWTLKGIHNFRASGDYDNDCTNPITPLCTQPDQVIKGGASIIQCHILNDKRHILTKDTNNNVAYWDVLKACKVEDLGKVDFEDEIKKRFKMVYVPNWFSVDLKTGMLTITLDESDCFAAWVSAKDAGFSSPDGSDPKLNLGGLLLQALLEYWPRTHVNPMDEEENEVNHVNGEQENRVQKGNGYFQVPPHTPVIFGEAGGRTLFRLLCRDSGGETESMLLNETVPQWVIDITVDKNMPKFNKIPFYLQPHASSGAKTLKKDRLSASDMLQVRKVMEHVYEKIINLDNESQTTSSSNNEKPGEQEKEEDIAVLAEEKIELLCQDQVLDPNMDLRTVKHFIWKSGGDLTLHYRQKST
T1 sequence (Q8TBZ3 whole entry partner, species assumed): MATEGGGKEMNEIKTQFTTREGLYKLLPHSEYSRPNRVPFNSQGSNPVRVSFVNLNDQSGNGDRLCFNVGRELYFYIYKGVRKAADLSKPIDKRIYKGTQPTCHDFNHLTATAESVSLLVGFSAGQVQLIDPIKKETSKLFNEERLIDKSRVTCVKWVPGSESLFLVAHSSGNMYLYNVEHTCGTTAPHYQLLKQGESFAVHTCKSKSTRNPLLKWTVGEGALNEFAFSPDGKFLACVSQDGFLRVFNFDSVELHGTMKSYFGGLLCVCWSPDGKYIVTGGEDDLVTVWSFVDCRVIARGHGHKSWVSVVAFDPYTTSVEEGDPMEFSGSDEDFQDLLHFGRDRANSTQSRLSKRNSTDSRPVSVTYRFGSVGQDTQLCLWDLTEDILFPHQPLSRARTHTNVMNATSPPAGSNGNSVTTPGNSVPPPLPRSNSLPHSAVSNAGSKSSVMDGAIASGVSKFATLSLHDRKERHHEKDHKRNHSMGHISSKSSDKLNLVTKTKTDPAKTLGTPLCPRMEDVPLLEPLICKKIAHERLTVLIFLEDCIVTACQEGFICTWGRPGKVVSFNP
T2 sequence (O94782 whole entry): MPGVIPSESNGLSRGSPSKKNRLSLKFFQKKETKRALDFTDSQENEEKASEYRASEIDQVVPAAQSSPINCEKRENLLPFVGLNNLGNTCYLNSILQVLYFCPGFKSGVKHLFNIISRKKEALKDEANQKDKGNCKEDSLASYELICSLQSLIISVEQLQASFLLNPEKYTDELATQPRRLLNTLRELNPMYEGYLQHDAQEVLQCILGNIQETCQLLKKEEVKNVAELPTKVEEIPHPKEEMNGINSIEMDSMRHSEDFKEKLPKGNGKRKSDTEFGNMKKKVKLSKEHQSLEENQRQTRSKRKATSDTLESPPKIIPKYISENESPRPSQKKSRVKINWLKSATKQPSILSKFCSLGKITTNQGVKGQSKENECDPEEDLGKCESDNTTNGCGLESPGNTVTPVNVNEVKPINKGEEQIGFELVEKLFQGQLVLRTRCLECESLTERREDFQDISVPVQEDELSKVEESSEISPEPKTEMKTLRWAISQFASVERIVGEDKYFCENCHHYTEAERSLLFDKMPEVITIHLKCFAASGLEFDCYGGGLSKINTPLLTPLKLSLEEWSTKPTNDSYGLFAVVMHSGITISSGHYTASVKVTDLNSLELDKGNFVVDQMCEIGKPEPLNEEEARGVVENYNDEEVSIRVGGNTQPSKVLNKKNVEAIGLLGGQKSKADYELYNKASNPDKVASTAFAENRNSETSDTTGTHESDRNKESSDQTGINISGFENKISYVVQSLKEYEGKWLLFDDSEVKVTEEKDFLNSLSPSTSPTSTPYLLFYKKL
T2 sequence (Q8TAF3 whole entry partner): as the sequence (Q8TAF3 whole entry partner, species assumed) above

Compound: O=C1c2ccccc2C(=O)c2oc(-c3ccc(F)cc3)nc21 [Formula IV (527)]
- IC50 compared with USP1/UAF1 (USP12/UAF1/WDR20 complex; FIG. 6D): slightly higher
- DUB activity of the USP12/UAF1/WDR20 complex (USP12/UAF1/WDR20 complex; in vitro, FIG. 6A): inhibited
- USP1 binding to Ub-VS (native USP1): did inhibit USP1 binding to Ub-VS in the same reaction in a dose-dependent manner
- non-homologous end joining (NHEJ) activity [1]: did not inhibit
- cell proliferation (HeLa cells): inhibited cell proliferation
